The source made the active and inactive calls. The rule behind the calls is not given here.
What was measured:
[1] = tested on: Mus musculus; test: Compound was tested for analgesia in mouse writhing assay by subcutaneous administration; format: functional
[2] = tested on: Rattus norvegicus; test: Compound was tested for antagonist in rat tail flick assay by subcutaneous administration at dose 29 umol/kg; IA means inactive; format: functional, organism-based
[3] = tested on: Rattus norvegicus; test: Antagonist activity in rat tail flick assay by subcutaneous administration; format: functional
[4] = tested on: Rattus norvegicus; test: Antagonist activity in rat tail flick assay by intraperitoneal administration; format: functional
[5] = species on record: Rattus norvegicus; test: Ratio of agonist potency to antagonist potency was determined; format: functional
[6] = tested on: Rattus norvegicus; test: Compound was tested for antagonist in rat tail flick assay by intraperitoneal administration at dose 25 umol/kg; IA means inactive; format: functional, organism-based
[7] = tested on: Rattus norvegicus; test: Compound was tested for antagonist in rat tail flick assay by subcutaneous administration at dose 27 umol/kg; IA means inactive; format: functional, organism-based
[8] = Mus musculus, sc, read-out: ED50
[9] = Rattus norvegicus, Tail, sc, read-out: ED50
[10] = Rattus norvegicus, Tail, ip, read-out: ED50

SMILES | ED50 [1, 8] | ED50 [1] | ED50 [4, 10] | other results
COc1ccc2c(c1)C13CCN(C)C(C2)[C@H]1[C@H](C)[C@@H](C)C(=O)C3 (stereo partly drawn) | 3.72 µmol/kg | – | – | ED50 [2]: inactive
C[C@@H]1C[C@@H]2C3Cc4ccc(O)cc4C2(CCN3C)CC1=O (stereo in doubt; 7T a) | – | 0.91 µM/kg | – | ED50 [3]: 1.09 µM/kg
C[C@@H]1[C@@H](C)C(=O)CC23CCN(C)C(Cc4ccc(O)cc42)[C@@H]13 (stereo partly drawn) | 0.58 µmol/kg | – | – | ED50 [3, 9]: 0.68 µmol/kg
COc1ccc2c(c1)C13CCN(CC4CCC4)C(C2)[C@H]1C[C@@H](C)C(=O)C3.Cl (stereo partly drawn) | – | 7.31 µM/kg | > 38 µmol/kg | –
COc1ccc2c(c1)C13CCN(CC4CCC4)C(C2)[C@H]1C[C@@H](C)C(=O)C3 (stereo partly drawn) | – | 20.3 µM/kg | – | –
C[C@H]1C[C@H]2C3Cc4ccc(O)cc4C2(CCN3C)CC1=O (stereo in doubt; 7C a) | 0.39 µmol/kg | – | – | ED50 [3]: 1.82 µM/kg
C[C@@H]1C[C@@H]2C3Cc4ccc(O)cc4C2(CCN3CC2CCC2)CC1=O (stereo in doubt; 13T) | – | 2.6 µM/kg | 13.8 µmol/kg | Ratio [5]: 0.2
CC[C@H]1[C@H](C)C(=O)CC23CCN(C)C(Cc4ccc(O)cc42)[C@H]13 (stereo partly drawn) | 0.14 µmol/kg | – | – | ED50 [3, 9]: 1.5 µmol/kg
Oc1ccc2c(c1)[C@@]13CCCC[C@@]1(O)[C@@H](C2)N(CC1CCC1)CC3 [BUTORPHANOL] | 0.34 µmol/kg | – | 2 µmol/kg | Ratio [5]: 0.17
CC[C@@H]1[C@@H](C)C(=O)CC23CCN(C)C(Cc4ccc(O)cc42)[C@@H]13 (stereo partly drawn) | 7.53 µmol/kg | – | – | ED50 [3, 9]: 7.45 µmol/kg
C[C@H]1C[C@H]2C3Cc4ccc(O)cc4C2(CCN3CC2CCC2)CC1=O (stereo in doubt; 13C) [listing 1 of 2 here] | – | – | – | ED50 [6]: inactive
COc1ccc2c(c1)C13CCN(CC4CC4)C(C2)[C@@H]1C[C@H](C)C(=O)C3 (stereo partly drawn) | – | 0.66 µM/kg | – | Ratio [5]: 0.04; ED50 [4]: 14.9 µM/kg
CC[C@@H]1[C@@H](C)C(=O)CC23CCN(CC4CC4)C(Cc4ccc(O)cc42)[C@@H]13 (stereo partly drawn) | > 25 µmol/kg | – | > 25 µmol/kg | –
COc1ccc2c(c1)C13CCN(CC4CC4)C(C2)[C@H]1[C@H](C)[C@@H](C)C(=O)C3 (stereo partly drawn) | > 26 µmol/kg | – | > 26 µmol/kg | –
C[C@H]1C[C@H]2C3Cc4ccc(O)cc4C2(CCN3CC2CC2)CC1=O (stereo in doubt; 12C a) | – | 2.4 µM/kg | – | Ratio [5]: 0.17; ED50 [4]: 14.4 µM/kg
COc1ccc2c(c1)C13CCN(CC4CCC4)C(C2)[C@@H]1C[C@H](C)C(=O)C3 (stereo partly drawn) | – | 0.58 µM/kg | – | –
C=CCN1CC[C@]23c4c5ccc(O)c4O[C@H]2[C@@H](O)C=C[C@H]3[C@H]1C5 [NALORPHINE] | 3.51 µmol/kg | – | 2.47 µmol/kg | Ratio [5]: 1.42
COc1ccc2c(c1)C13CCN(C)C(C2)[C@H]1C[C@@H](C)C(=O)C3 (stereo in doubt; 6T) | – | 5.54 µM/kg | – | ED50 [3, 9]: > 70 µmol/kg
COc1ccc2c(c1)C13CCN(CC4CC4)C(C2)[C@@H]1[C@@H](C)[C@H](C)C(=O)C3.Cl (stereo partly drawn) | 2.64 µmol/kg | – | 12.1 µmol/kg | Ratio [5]: 0.22
C[C@H]1C[C@H]2C3Cc4ccc(O)cc4C2(CCN3C)CC1=O (stereo in doubt; 7C) | – | 0.52 µM/kg | – | ED50 [3]: 70 µM/kg
CC[C@@H]1[C@@H](C)C(=O)CC23CCN(C)C(Cc4ccc(OC)cc42)[C@@H]13 (stereo partly drawn) | 7.42 µmol/kg | – | – | ED50 [7]: inactive
CN1CC[C@]23c4c5ccc(O)c4O[C@H]2C(=O)CC[C@H]3[C@H]1C5 [HYDROMORPHONE] | – | – | – | ED50 [3, 9]: 1.34 µmol/kg
COc1ccc2c(c1)C13CCN(C)C(C2)[C@@H]1[C@@H](C)[C@H](C)C(=O)C3 (stereo partly drawn) | 2.16 µmol/kg | – | – | ED50 [3, 9]: 17.9 µmol/kg
COc1ccc2c3c1O[C@H]1[C@@H](O)C=C[C@H]4[C@@H](C2)N(C)CC[C@@]341 [CODEINE] | 10.2 µmol/kg | – | – | ED50 [3, 9]: 75 µmol/kg
C[C@H]1C[C@H]2C3Cc4ccc(O)cc4C2(CCN3CC2CC2)CC1=O (stereo in doubt; 12C) | 3.28 µmol/kg | – | 7.4 µmol/kg | Ratio [5]: 0.44
CC[C@H]1[C@H](C)C(=O)CC23CCN(CC4CC4)C(Cc4ccc(OC)cc42)[C@H]13.Cl (stereo partly drawn) | 8.04 µmol/kg | – | 15.7 µmol/kg | Ratio [5]: 0.51
COc1ccc2c(c1)C13CCN(CC4CCC4)C(C2)[C@@H]1[C@@H](C)[C@H](C)C(=O)C3 (stereo partly drawn) | 15.8 µmol/kg | – | > 25 µmol/kg | –
COc1ccc2c(c1)C13CCN(CC4CC4)C(C2)[C@H]1C[C@@H](C)C(=O)C3 (stereo partly drawn) | > 25 µmol/kg | – | 3.6 µmol/kg | –
C[C@H]1C[C@H]2C3Cc4ccc(O)cc4C2(CCN3CC2CCC2)CC1=O (stereo in doubt; 13C) [listing 2 of 2 here] | – | 0.047 µM/kg | – | –
COc1ccc2c(c1)C13CCN(CC4CCC4)C(C2)[C@H]1[C@H](C)[C@@H](C)C(=O)C3 (stereo partly drawn) | > 25 µmol/kg | – | > 25 µmol/kg | –

From ChEMBL document CHEMBL1121374, “Analgesic narcotic antagonists. 4. 7-Methyl-N-(cycloalkylmethyl)-3-hydroxymorphinan-6-ones and -isomorphinan-6-ones” (1980)
